Data on 24 compounds can be found in ChEMBL document CHEMBL1136204, “Thymidine and thymidine-5'-O-monophosphate analogues as inhibitors of Mycobacterium tuberculosis thymidylate kinase” (Bioorg Med Chem Lett, 2003).

The target of the first experiment is T1, Thymidylate kinase (Mycobacterium tuberculosis, UniProt P9WKE1).
T1 sequence (P9WKE1 whole entry): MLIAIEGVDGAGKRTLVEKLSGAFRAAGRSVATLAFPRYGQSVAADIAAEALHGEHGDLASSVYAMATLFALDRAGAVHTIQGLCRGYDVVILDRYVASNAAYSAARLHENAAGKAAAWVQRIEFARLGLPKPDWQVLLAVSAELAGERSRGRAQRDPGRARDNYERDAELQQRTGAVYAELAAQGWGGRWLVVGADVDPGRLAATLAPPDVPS
Description: Inhibitory activity against thymidine monophosphate kinase (TMPK) in Mycobacterium tuberculosis.
Take `Cc1cn([C@H]2C[C@H](O)[C@@H](CN=[N+]=[N-])O2)c(=O)[nH]c1=O`: the affinity, expressed as Ki, was 7 µM. In turn, `C[C@@H]1CC[C@H](n2cc(Br)c(=O)[nH]c2=O)O1` showed a Ki of 5 µM.

Compound `Cc1cn([C@@H]2O[C@H](CI)[C@@H](N=[N+]=[N-])[C@H]2O)c(=O)[nH]c1=O` displayed a Ki of 490 µM. The compound `Cc1cn([C@@H]2O[C@H](C)[C@@H](N)[C@H]2O)c(=O)[nH]c1=O` gave a Ki of 1900 µM. Regarding `Cc1cn([C@@H]2O[C@H](CO)[C@@H](O)[C@@H]2O)c(=O)[nH]c1=O`, the inhibitory constant (Ki) is 238 µM. In the case of `Cc1cn([C@@H]2O[C@H](CO)[C@@H](O)[C@H]2F)c(=O)[nH]c1=O`, the Ki was 122 µM. The compound `Cc1cn([C@@H]2O[C@H](COP(=O)(O)O)[C@@H](O)[C@H]2N)c(=O)[nH]c1=O` registered a Ki of 120 µM. With `Cc1cn([C@@H]2O[C@H](COP(=O)(O)O)[C@@H](N)[C@H]2O)c(=O)[nH]c1=O`, affinity was put at a Ki of 45 µM. Regarding `O=c1[nH]c(=O)n([C@H]2C[C@H](O)[C@@H](COP(=O)(O)O)O2)cc1-c1cccs1`, affinity was put at a Ki of 270 µM. In turn, `O=c1[nH]c(=O)n([C@H]2C[C@H](O)[C@@H](COP(=O)(O)O)O2)cc1Cc1ccccc1` returned a Ki of 28 µM. Consider `O=c1[nH]c(=O)n([C@H]2C[C@H](O)[C@@H](COP(=O)(O)O)O2)cc1-c1ccco1`, for which the Ki was 140 µM. For `Cc1cn([C@@H]2CO[C@H](COP(=O)(O)O)[C@@H](O)C2)c(=O)[nH]c1=O`, the affinity corresponds to a Ki of 150 µM. In turn, `O=c1[nH]c(=O)n([C@H]2C[C@H](O)[C@@H](COP(=O)(O)O)O2)cc1CO` displayed a Ki of 110 µM.

`Cc1cn([C@H]2C[C@H](O)[C@@H](CN)O2)c(=O)[nH]c1=O` had a Ki of 12 µM. Still for that read-out and setting: as for `Cc1cn([C@@H]2O[C@H](CO)[C@@H](N=C(N)N)[C@H]2O)c(=O)[nH]c1=O`, the figure is 140 µM; as for `CC(=O)NC[C@H]1O[C@@H](n2cc(C)c(=O)[nH]c2=O)C[C@@H]1O`, 90 µM. Turning to `Cc1cn([C@H]2C[C@H](N)[C@@H](CO)O2)c(=O)[nH]c1=O` [3-AMINO- 3-DEOXYTHYMIDINE], the inhibitory constant (Ki) turned out to be 230 µM. As to `O=c1[nH]c(=O)n([C@@H]2O[C@H](CO)[C@@H](O)[C@H]2O)cc1F` [5-FLUOROURIDINE], the affinity, expressed as Ki, was 521 µM. In the case of `Cc1cn([C@H]2C[C@H](F)[C@@H](CO)O2)c(=O)[nH]c1=O` [ALOVUDINE], the affinity corresponds to a Ki of 28 µM. Same read-out and setting: the same measure for `C[C@H]1O[C@@H](n2cc(F)c(=O)[nH]c2=O)[C@H](O)[C@@H]1O` [DOXIFLURIDINE]: 560 µM; for `Cc1cn([C@H]2C[C@H](O)[C@@H](CO)O2)c(=O)[nH]c1=O` [DOXRIBTIMINE]: 715 µM; for `CCc1cn([C@H]2C[C@H](O)[C@@H](CO)O2)c(=O)[nH]c1=O` [EDOXUDINE]: 1140 µM.

For the compound `O=c1[nH]c(=O)n([C@H]2C[C@H](O)[C@@H](CO)O2)cc1C(F)(F)F` [TRIFLURIDINE], the Ki came out at 97 µM.

The target of the next experiment is T1, Thymidylate kinase. Description: Inhibitory activity against thymidine monophosphate kinase (TMPKmt) in Mycobacterium tuberculosis using HPLC chromatography test.
The compound `Cc1cn([C@H]2C[C@H](O)[C@@H](COP(=O)(O)OP(=O)(O)OP(=O)(O)OP(=O)(O)OP(=O)(O)OC[C@H]3O[C@@H](n4cnc5c(N)ncnc54)[C@H](O)[C@@H]3O)O2)c(=O)[nH]c1=O` came in with an inhibition constant Ki of 30 µM.
